{
  "source": "patent US20050261250A1",
  "about": "“Compositions and methods for inhibiting bone resorption” (Merck & Co., Inc.,, priority 2004, published 2005)",
  "key": {"[1]": {"test": "Autoxidative lability of vitamin D3 as oil or amorphous solid (HPLC)", "assay_type": "physicochemical", "conditions": "20-40° C., within hours", "excerpt": "It is also understood that vitamin D can undergo autoxidation through induction by a free radical initiator or spontaneously in solid or solution phase to form a variety of products, some of which have been identified. Representative characterization of vitamin D degradation (and, specifically, vitamin D3 in this instance) in embodiments of compositions of the present invention confirms the autoxidative lability of vitamin D3 in which vitamin D3 was converted to an oil or amorphous solid and exposed to temperatures from 20-40° C. […] At longer exposure times, these absorptions continued to decrease as further reaction occurred."}, "[2]": {"conditions": "cited from earlier work"}},
  "data": [
    {"smiles": "C=C1CC[C@H](O)C/C1=C/C=C1\\CCC[C@]2(C)[C@@H]([C@H](C)CCCC(C)C)CC[C@@H]12", "note": "[Vitamin D3, cholecalciferol]", "values": [
      {"measurement": "HPLC analysis of vitamin D3 after exposure", "setting": "[1]", "value": "extensive destruction"}
    ]},
    {"smiles": "C=C1CC[C@H](O)C/C1=C/C=C1\\CCC[C@]2(C)[C@@H]([C@H](C)/C=C/[C@H](C)C(C)C)CC[C@@H]12", "note": "[vitamin D2, ergocalciferol]", "values": [
      {"measurement": "aqueous solubility", "setting": "[2]", "value": "water insoluble"}
    ]}
  ]
}
